What was measured:
osteoporosis patients = tested on: osteoporosis patients; parameters: method as in PMID 15687321, PMID 20398037; conditions: 52 weeks; cited from earlier work
mouse αvβ1 = mouse αvβ1 (Mus musculus, UniProt P09055+P43406); assay: Latent TGFβ activation assay (TMLC / CHOK1-integrin co-culture, PAI-1 luciferase); type: cell-based; parameters: expressed in transfected cells; conditions: in words
Experimental: (§1) Transfected mink lung epithelial cell (TMLC) cell line containing the TGFβ responsive PAI-1 promoter driving luciferase expression[29] and the CHO-K1 human and mouse αvβx integrin cell lines were grown under optimized growth conditions to 90% confluency. TMLC cells were trypsinized and plated at 25,000 cells/well in 50 μL in Costar clear bottom white walled plates. In a separate plate, 25 μL of serially diluted antibodies at 4X concentration were added to wells containing 25 μL of either 25,000 cells of human or mouse αvβx cells. After a brief mixing, the 50 μL mixture was transferred to the TMLC cell plates for a total volume of 100 μL and incubated at 37 °C for 16 h. 100 μL of ONE-Glo kit (#PRE6120) was added to each well and read after 3–5 min on the Envision plate reader.

human αvβ1 = human αvβ1 (Homo sapiens, UniProt P05556+P06756); assay: as above; type: cell-based; parameters: expressed in transfected cells; conditions: in words
human αvβ1, sequence (P06756 31-1048): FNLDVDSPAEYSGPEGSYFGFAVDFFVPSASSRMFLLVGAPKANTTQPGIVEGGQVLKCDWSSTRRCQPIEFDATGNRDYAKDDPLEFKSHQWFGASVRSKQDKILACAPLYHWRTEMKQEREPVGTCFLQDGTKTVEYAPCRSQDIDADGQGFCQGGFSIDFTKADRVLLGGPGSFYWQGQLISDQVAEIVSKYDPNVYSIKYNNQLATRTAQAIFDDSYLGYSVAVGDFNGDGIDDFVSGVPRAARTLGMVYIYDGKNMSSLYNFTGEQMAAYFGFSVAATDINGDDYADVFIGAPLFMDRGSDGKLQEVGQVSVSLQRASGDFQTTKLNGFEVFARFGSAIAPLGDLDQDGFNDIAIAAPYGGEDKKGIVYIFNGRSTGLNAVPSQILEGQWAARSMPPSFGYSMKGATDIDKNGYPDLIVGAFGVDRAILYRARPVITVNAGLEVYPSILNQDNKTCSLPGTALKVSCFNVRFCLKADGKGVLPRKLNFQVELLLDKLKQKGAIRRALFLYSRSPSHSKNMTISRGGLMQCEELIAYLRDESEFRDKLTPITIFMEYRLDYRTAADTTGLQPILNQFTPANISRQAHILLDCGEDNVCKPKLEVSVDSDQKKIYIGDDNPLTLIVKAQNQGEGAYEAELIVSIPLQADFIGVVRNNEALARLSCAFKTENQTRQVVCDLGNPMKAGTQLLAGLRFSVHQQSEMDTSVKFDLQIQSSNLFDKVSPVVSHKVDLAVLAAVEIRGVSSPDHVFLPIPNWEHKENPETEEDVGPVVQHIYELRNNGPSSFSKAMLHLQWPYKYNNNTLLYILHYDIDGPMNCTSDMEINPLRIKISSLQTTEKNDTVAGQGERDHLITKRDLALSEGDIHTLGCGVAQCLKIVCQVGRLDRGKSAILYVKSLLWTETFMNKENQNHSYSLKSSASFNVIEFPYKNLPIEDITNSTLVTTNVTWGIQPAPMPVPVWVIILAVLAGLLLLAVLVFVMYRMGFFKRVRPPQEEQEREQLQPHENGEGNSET
human αvβ1, sequence (P05556 21-798): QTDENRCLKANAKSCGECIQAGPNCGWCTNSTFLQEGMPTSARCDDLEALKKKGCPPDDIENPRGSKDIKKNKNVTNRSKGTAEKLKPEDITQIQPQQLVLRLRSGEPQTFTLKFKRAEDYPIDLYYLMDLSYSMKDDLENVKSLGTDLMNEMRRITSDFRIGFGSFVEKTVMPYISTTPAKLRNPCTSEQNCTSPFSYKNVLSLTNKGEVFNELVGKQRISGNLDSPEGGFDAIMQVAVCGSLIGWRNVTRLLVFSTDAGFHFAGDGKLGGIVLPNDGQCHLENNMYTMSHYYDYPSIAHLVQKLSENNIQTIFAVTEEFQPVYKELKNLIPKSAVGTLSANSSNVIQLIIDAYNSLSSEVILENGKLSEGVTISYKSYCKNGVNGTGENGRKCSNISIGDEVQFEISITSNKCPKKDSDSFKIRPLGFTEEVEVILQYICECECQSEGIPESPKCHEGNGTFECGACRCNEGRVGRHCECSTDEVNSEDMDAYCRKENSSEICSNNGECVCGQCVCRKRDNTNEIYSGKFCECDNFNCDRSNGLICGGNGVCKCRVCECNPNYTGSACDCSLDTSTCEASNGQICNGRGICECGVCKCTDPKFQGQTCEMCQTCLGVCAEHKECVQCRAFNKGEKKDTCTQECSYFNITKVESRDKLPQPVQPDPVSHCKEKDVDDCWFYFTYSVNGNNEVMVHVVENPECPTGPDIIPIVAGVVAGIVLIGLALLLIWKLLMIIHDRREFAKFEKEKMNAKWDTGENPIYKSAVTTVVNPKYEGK
Experimental: as §1

human αvβ8 = human αvβ8 (Homo sapiens, UniProt P06756+P26012); assay: as above; type: cell-based; parameters: expressed in transfected cells; conditions: in words
Experimental: as §1

human αvβ6 = human αvβ6 (Homo sapiens, UniProt P06756+P18564); assay: as above; type: cell-based; parameters: expressed in transfected cells; conditions: in words
Experimental: as §1

[1] = tested on: bleomycin-induced lung fibrosis; assay: Bleomycin-induced lung fibrosis mouse model; type: in vivo; conditions: BLM mice, Nintedanib 60 mpk po qd
Experimental: Adult male C57BL/6 mice (Taconic, Rensselaer, NY) were housed in a temperature and humidity-controlled facility with a 12 h light: 12-h dark cycle. Animals had ad libitum access to food (Purina Rodent Chow 5053, LabDiet, St. Louis, MO) and water. All procedures utilizing experimental animals were conducted in accordance with the Guide for the Care and Use of Laboratory Animals, and experimental procedures were reviewed and approved by the Institutional Animal Care and Use Committee at MRL, Kenilworth, NJ. For osmotic minipump implantation, TFA salt of MK-0429 was formulated in 50% DMSO/50% H2O at a concentration of 416 mg/mL. MK-0429 or vehicle solution were filled in minipumps (Alzet, # 1007D, flow rate 0.5 μL/h). Minipumps were placed in mice subcutaneously in a pocket on the back between the shoulder blades. A small incision was made and a subcutaneous pocket formed by blunt dissection. A sterile minipump was inserted into the subcutaneous pocket. The incision was closed with staples or non-absorbable suture or absorbable (subcuticular) suture. The minipumps were used for continuous drug delivery for 2 weeks. Mice at 12 ~ 13 weeks of age were randomized to 5 groups: saline, bleomycin instillation with vehicle (osmotic minipump), bleomycin instillation with MK-0429 treatment, bleomycin instillation with vehicle oral treatment, and bleomycin instillation with Nintedanib treatment. All mice were anaesthetized with isoflurane. Bleomycin was dosed by intra-tracheal (i.t) instillation in a volume of 50 µl, at a dose of 1unit /kg body weight. After instillation, mice were kept in a heads-up position for 2–5 min before putting into cages. MK-0429 (200 mg/kg) was administered by Osmotic pump from day 5 to day 14 and Nintedanib (60 mg/kg) was administered, p.o., q.d., for 14 days. Vehicle was dosed orally at 10 am daily from the day 5 to the end of the studies and dosing volume was 10 mL/kg. For plasma PK analysis, an aliquot of 50 μL plasma was spiked into a 96-well plate, and 200 μL of acetonitrile containing internal standard were added for protein precipitation. The mixture was vortexed, centrifuged at 4000 rpm for 20 min. 50 μL of supernatant were mixed with 200 μl H2O and the final solution were injected for LC–MS/MS analysis. The methods for quantitative analysis were developed on UPLC (Waters) chromatographic system equipped with an API4000 QTrap mass spectrometer (Applied Biosystems, Concord, Ontario, Canada). Analyst 1.5 software packages (Applied Biosystems) were used to control the LC–MS/MS system and data acquisition and processing. Upon completion of the study, animals were euthanized and tissues were collected for histological assessment. Lung tissues were perfused with 10% formalin, fixed for 24 h, and then paraffin embedded. Tissue sections were stained with hematoxylin & eosin (H&E) and Masson’s trichrome, subsequently evaluated under light microscope. The severity of histopathologic changes and fibrosis in the lung were graded as described previously by pathologists[51],[52]. Following deparaffinization and rehydration, each lung tissue section was processed to identify αSMA deposition by immunohistochemistry. The primary antibodies used were αSMA antibody from Sigma. The Aperio ScanScope XT Slide Scanner (Aperio Technologies) system was used to capture whole slide digital images with a 20 × objective. Digital images were managed using Aperio Spectrum. The positive stains were identified and quantified using a macro created from a color deconvolution algorithm (Aperio Technologies). Statistical analysis was performed by using One-way ANOVA followed by Tukey’s test.

mouse αvβ6 = target: T1, mouse αvβ6 (Mus musculus, UniProt P43406+Q9Z0T9); assay: Latent TGFβ activation assay (TMLC / CHOK1-integrin co-culture, PAI-1 luciferase); type: cell-based; conditions: in words
T1 construct: expressed in transfected cells
T1 sequence (P43406 31-1044): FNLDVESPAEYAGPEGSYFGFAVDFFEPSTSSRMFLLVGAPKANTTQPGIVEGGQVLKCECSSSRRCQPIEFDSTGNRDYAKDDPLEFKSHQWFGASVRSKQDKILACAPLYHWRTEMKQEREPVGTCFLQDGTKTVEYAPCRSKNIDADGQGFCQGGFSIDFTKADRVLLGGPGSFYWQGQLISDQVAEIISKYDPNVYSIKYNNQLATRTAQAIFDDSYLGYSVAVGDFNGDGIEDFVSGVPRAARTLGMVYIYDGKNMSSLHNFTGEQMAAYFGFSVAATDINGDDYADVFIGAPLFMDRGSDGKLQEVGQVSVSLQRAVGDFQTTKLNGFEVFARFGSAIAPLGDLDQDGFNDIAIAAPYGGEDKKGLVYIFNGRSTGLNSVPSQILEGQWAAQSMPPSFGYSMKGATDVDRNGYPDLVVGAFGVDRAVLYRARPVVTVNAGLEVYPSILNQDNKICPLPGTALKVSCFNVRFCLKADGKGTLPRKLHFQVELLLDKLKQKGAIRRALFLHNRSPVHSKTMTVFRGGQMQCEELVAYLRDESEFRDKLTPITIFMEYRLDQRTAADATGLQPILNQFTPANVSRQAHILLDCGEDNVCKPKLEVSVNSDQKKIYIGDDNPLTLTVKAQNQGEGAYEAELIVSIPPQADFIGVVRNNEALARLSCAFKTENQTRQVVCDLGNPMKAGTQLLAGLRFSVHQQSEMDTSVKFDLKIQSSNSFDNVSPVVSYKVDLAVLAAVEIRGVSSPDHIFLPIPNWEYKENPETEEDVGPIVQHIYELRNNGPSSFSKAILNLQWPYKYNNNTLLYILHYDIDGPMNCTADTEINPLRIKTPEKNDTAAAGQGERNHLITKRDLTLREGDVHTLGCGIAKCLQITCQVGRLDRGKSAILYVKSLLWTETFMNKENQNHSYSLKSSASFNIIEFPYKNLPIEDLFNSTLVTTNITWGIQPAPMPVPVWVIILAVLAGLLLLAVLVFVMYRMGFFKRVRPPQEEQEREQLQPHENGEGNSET
T1 sequence (Q9Z0T9 22-787): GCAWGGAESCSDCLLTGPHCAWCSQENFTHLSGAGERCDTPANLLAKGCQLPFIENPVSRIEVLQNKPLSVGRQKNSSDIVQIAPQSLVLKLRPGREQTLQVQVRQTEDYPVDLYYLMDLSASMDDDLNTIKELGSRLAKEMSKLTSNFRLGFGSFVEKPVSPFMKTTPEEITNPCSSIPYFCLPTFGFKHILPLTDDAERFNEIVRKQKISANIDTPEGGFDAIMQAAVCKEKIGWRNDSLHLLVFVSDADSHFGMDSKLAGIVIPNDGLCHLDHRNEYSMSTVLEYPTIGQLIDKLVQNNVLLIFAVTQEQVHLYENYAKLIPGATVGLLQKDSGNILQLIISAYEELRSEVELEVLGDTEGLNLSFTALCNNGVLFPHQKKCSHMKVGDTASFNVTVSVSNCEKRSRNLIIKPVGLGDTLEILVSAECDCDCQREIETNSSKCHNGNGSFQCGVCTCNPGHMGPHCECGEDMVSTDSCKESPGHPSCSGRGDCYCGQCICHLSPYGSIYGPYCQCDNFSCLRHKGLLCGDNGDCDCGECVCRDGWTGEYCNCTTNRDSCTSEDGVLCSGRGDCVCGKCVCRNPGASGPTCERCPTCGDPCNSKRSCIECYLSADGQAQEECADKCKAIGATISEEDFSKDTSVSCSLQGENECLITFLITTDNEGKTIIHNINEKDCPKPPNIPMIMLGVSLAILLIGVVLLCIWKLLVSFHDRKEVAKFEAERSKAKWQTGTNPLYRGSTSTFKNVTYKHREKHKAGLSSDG
Experimental: as §1

[2] = treatment from day 5 for 14 days, MK-0429 200 mpk osmotic minipump, vs BLM-vehicle

mouse αvβ1, sequence (P43406 31-1044): as the sequence (P43406 31-1044) above
mouse αvβ1, sequence (P09055 21-798): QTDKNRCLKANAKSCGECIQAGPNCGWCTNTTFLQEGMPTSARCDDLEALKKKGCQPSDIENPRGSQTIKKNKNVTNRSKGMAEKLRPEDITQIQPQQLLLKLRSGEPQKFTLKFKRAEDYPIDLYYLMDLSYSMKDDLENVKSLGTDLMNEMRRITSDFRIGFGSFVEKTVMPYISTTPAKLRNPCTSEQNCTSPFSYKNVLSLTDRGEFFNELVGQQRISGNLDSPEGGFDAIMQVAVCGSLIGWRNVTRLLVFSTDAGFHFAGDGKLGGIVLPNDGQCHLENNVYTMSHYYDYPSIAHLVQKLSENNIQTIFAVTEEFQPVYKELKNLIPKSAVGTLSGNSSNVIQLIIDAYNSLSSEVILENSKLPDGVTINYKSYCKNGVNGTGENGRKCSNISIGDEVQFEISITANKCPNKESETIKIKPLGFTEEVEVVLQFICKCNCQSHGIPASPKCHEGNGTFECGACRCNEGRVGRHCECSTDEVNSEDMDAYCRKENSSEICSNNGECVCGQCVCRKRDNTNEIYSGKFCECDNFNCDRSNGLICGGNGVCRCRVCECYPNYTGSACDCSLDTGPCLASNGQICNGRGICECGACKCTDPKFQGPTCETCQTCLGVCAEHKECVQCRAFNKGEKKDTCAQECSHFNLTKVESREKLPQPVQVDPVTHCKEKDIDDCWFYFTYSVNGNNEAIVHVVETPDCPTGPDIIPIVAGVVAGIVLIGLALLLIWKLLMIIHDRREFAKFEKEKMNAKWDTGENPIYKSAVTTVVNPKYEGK

## COc1ccc(C(CC(=O)O)N2CCN(CCCc3ccc4c(n3)NCCC4)C2=O)cn1 (centres unmarked) [MK-0429]
Osteoporosis patients
  Safety profile: relatively well-tolerated
Mouse αvβ1
  Inhibition of latent TGFβ activation, mouse αvβ1 co-culture: strong inhibitory effect
Human αvβ1
  Inhibition of latent TGFβ activation, human αvβ1 co-culture: strong inhibitory effect
Human αvβ8
  Inhibition of latent TGFβ activation, human αvβ8 co-culture: strong inhibitory effect
Human αvβ6
  Inhibition of latent TGFβ activation, human αvβ6 co-culture: strong inhibitory effect
[1]; 14 days treatment, MK-0429 200 mpk minipump
  TIMP-1 content in BALF: did not reach statistical significance
[1]; [2]
  Modified Ashcroft score of mouse lung: significantly decreased
  Total inflammation area in mouse lungs: nonstatistical significant decrease
  αSMA immunohistochemistry in lung: significantly decreased
[1]; MK-0429 200 mpk minipump
  Body weight vs bleomycin group: no significant body weight difference
Mouse αvβ6
  Inhibition of latent TGFβ activation, mouse αvβ6 co-culture: strong inhibitory effect
